Measurements reported in US20250230438A1, “NEURAL REPAIR THROUGH INHIBITION OF REG3A SIGNALING” (UNIVERSITY OF SOUTH CAROLINA, priority 2023, published 2025).
Entries after “also recorded” stand apart in the source; their conditions may differ.

Key:
KHSRP = assay: Axonal KHSRP protein levels in DRG cultures; type: cell-based, mouse; settings: for effect on recREG3A-dependent increase in axonal KHSRP: co-treatment with recREG3A
Description: (§1) Specifically, it was observed that KHSRP protein increases in regenerating sciatic nerve axons, which promotes decay of regeneration-associated mRNAs including Gap43 and Snap25 mRNAs. Thus, herein it was investigated whether REG3A effects might converge on Khsrp mRNA.

[1] = tested on: dorsal root ganglia (DRG) neurons; assay: Axon growth and branching in dissociated adult mouse DRG cultures; type: cell-based; settings: for effect on recREG3A-induced decrease in axon growth / effect on recREG3A-induced increase in axon branching: co-treatment with recREG3A
Description: Previously, it was shown that Reg3A mRNA expression increases after nerve injury and the mRNA is transported into regenerating peripheral nerve axons and spinal cord axon. The spinal cord model used a peripheral nerve graft to support regenerating of ascending spinal cord axons after transection. To determine if REG3A protein might affect axon growth, whether the dorsal root ganglia (DRG) neurons respond to recombinant human REG3A (recREG3A) was investigated.
shRNA depletion of Reg3A mRNA was used to determine if the endogenous REG3A protein reduces axon growth.
as §1

growth cone calcium = assay: Axonal/growth cone calcium by GCaMP fluorescence in DRG spot cultures; type: cell-based, mouse; settings: DRG spot cultures with AAV9-GCaMP
Description: The findings above provide circumstantial but not direct evidence for elevated axoplasmic calcium as a key regulator of REG3A's effects on axons. As such, herein it was investigated whether REG3A increases calcium levels in DRG neurons using genetically encoded GCaMP fluorescent calcium indicator in DRG spot cultures. For this, DRG spot cultures were co-transduced with AAV9-GCaMP. […] Axonal calcium levels are known to increase immediately after axotomy but based on translational regulation of different axonal mRNAs that respond to elevated vs. normal axonal calcium levels, the axotomy induced increase in calcium returns to pre-injury levels within 16 hours after axotomy to allow translation of axonal mRNAs encoding regeneration-associated proteins. Thus, intra-axonal calcium levels in regenerating axons were monitored beginning at 16 hours after axotomy. The regenerating axons show an oscillatory GCaMP signal with broad peaks approximately every 50-70 min over a 4-hour period in AAV9-shCntl-transduced DRG spot cultures (FIG. 8E).

eIF2α^PS51 = eIF2α^PS51 immunofluorescence in growth cones of DRG cultures; type: cell-based; settings: acute treatment of adult mouse DRG cultures
Description: Previously, it was observed that axonal Khsrp mRNA translation is increased by activation of the PERK and subsequent PERK-dependent serine 51 phosphorylation of the translation initiation factor eIF2a. […] PERK inhibition similar reduced the REG3A-dependent translation of axonal GFP^MYR5′/3′khsrp in FRAP assays (FIG. 9C).

In the case of `O=C(O)CN(CC(=O)O)c1ccccc1OCCOc1ccccc1N(CC(=O)O)CC(=O)O` [BAPTA], the “effect on recREG3A-dependent increase in axonal KHSRP” value (“effect on recREG3A-dependent increase” below) (KHSRP) is reported as “also attenuated”.

With `C[C@@H]1C[C@@H]([C@H](O)CC2CC(=O)NC(=O)C2)C(=O)[C@@H](C)C1` [cycloheximide] the “effect on recREG3A-dependent increase” value (KHSRP) was “did not occur”, the “effect on recREG3A-induced decrease in axon growth” value [1] was “prevented” and the “effect on recREG3A-induced increase in axon branching” value [1] was “prevented”.

With `CC(=O)OCOC(=O)CN(CC(=O)OCOC(C)=O)c1ccccc1OCCOc1ccccc1N(CC(=O)OCOC(C)=O)CC(=O)OCOC(C)=O` [BAPTA-AM] the “effect on recREG3A-dependent increase” value (KHSRP) was “attenuated”, the “effect on recREG3A-induced decrease in axon growth” value [1] was “blocked” and the “effect on recREG3A-induced increase in axon branching” value [1] was “blocked”.

B1: recREG3A: recombinant human REG3A (recREG3A) (protein)
chain: EDFQKEVPSPRTSCPMGYKAYRSHCYALVMTPKSWFQADLVCQKRPSGHLVSILSGGEASFVSSLVNGRVDNYQDIWIGLHDPTMGQQPNGGGWEWSNSDVLNYLNWDGDPSSTVNRGHCGSLTASSGFLKWGDYYCDGTLPFVCKFKQ
For B1, the “growth cone / intra-axonal calcium levels (GCaMP)” value (growth cone calcium) was “significantly increased growth cone calcium”, the “growth cone / intra-axonal calcium levels (GCaMP)” value (growth cone calcium; listed as RecREG3A) was “increases” and the “KHSRP levels in distal axons” value (KHSRP; recREG3A application) was “increased KHSRP levels in distal axons”. The “eIF2α^PS51 levels in growth cones” value (eIF2α^PS51) was “increased eIF2α^PS51 levels in growth cones”, the axon branching ([1]; bath application of recREG3A, adult mouse sensory neurons) was “increased axon branching” and the axon growth ([1]; bath application of recREG3A, adult mouse sensory neurons, 24-hour exposure) was “reduced axon growth; also recorded: decreases axon extension”.
